{"source": "patent US10493029B2", "about": "“Ziyuglycoside II polymer micelle and preparative methods thereof” (SICHUAN INLU WEITE PHARMACEUTICAL TECHNOLOGY CO., LTD., priority 2016, dated 2019)", "tested_on": "bone marrow suppression induced by cyclophosphamide in KM-mice", "assay": "Pharmacodynamic experiment: cyclophosphamide-induced bone marrow suppression, peripheral blood counts", "assay_type": "in vivo", "procedure": "1. Experimental Materials, Reagents, Apparatus\nTest drugs were ziyuglycoside II micelles and ziyuglycoside II powder.\nTool drug was cyclophosphamide.\nLaboratory animals were KM-mice: 18.5-22.5 g.\nLaboratory apparatus: Automatic blood counting analyzer; BS-600L electronic balance: specification: 600 g/0.1 g, Shanghai Yousheng Weighing Apparatus Co. Ltd.\nStatistical analysis was performed using SPSS 17.0 software. Data were expressed as mean±standard error (x±S), and one-factor analysis of variance was used among groups. For homogeneity of variance, data between groups were compared by LSD test, while for heterogeneity of variance, data between groups were compared by Tamhane's T2 test.\nAfter all animals were adaptively fed for one week, according to the body weight, animals were randomly divided as blank group; model group; ziyuglycoside II micelle sample groups 1-4 (respectively using micelles prepared in examples 1-4), with a dosage of 2.5 mg·kg^−1, preparation before use; ziyuglycoside II group: powder of ziyuglycoside II raw materials, dissolved in 10% DMSO-normal saline, with a dosage of 2.5 mg·kg^−1, preparation before use. On the first day of experiment, except for blank group, mice in other groups received cyclophosphamide normal saline solution at a dose of 120 mg·kg^−1 by peritoneal injection, and mice in blank group received the same volume of normal saline by peritoneal injection.\nFrom the first day of experiment, each experimental group was given the corresponding drug as the predetermined dosage and administration mode, and mice in blank group and model group were given a same volume of normal saline by injection into the tail vein, for successive 6 days.\nOn the seventh day of experiment, whole blood was collected from orbit of mice in each experimental group, and placed in 0.5 ml EP tubes containing EDTA anticoagulant agent for test.\nWhite blood cells (WBC), neutrophilic granulocytes (NEUT), red blood cells (RBC), platelets (PLT), and hemoglobin (HGB) in peripheral blood of mice in each experimental group were counted using automatic blood counting instrument.", "key": {"[1]": {"details": "cyclophosphamide 120 mg/kg i.p. day 1, drug 2.5 mg/kg for 6 days, blood on day 7, mean±standard error"}}, "data": [{"smiles": "C[C@@H]1CC[C@]2(C(=O)O)CC[C@]3(C)C(=CC[C@@H]4[C@@]5(C)CC[C@H](O[C@@H]6OC[C@H](O)[C@H](O)[C@H]6O)C(C)(C)[C@@H]5CC[C@]43C)[C@@H]2[C@]1(C)O", "note": "[Ziyuglycoside II, 3-O-α-L-arabinosyl-19α-hydroxyurs-12-en-28-oic acid]", "values": [{"measurement": "numbers of NEUT and HGB in peripheral blood compared with model group", "setting": "2.5 mg/kg, P<0.05", "value": "did not show significant difference"}, {"measurement": "numbers of WBC, RBC, and PLT in peripheral blood compared with model group", "setting": "2.5 mg/kg, P<0.05", "value": "did not show significant difference"}, {"measurement": "HGB in peripheral blood", "setting": "[1]", "value": "44.65 ± 7.27", "unit": "g/L"}, {"measurement": "NEUT in peripheral blood", "setting": "[1]", "value": "2.47 ± 0.55 ×10^9"}, {"measurement": "PLT in peripheral blood", "setting": "[1]", "value": "221.18 ± 6.15 ^ ×10^9"}, {"measurement": "RBC in peripheral blood", "setting": "[1]", "value": "3.54 ± 0.11 ×10^12"}, {"measurement": "WBC in peripheral blood", "setting": "[1]", "value": "3.71 ± 0.13 ×10^9"}]}]}
